Experimental data: US9518022B2, “Anti-HIV compounds” (priority 2014, dated 2016)
Like-named read-outs stand apart in the source and are kept apart here.

Assay: Cytotoxicity assay (AlamarBlue) in mock infected MT-2 cells
Format: cell-based
Settings: human
Description: The present assay was used to screen candidate antiviral compounds by quantification of virus spread and production over several rounds of infection in vitro. MT-2, a HIV-1 permissive human T-cell line, was seeded in microtiter plates and was simultaneously treated with serially diluted compound and inoculated with a HIV-1 NL4-3 viral clone engineered to express Renilla luciferase in place of Nef. Following treatment, the culture was incubated for 96 hours. After the incubation, media was collected and used to estimate relative infectivity on the indicator cell line, TZM-bl. Additionally, viral spread was quantified by measuring luciferase activity via a commercially available luciferase substrate. In parallel, MT-2 cells were seeded and inoculated with mock virus in the presence of serially diluted compound. Compound toxicity was quantified 96 hours after treatment with AlamarBlue.
MT-2 (NIH Aids reagent program 237) cells were grown and maintained in an incubator at 37° C. with 5% CO2 using a basal medium of RPMI-1640 supplemented with 10% FBS. Cells were seeded in 100 μl at 2×10^4 cells/well in white walled 96-well microtiter plates. Candidate compounds were 3-fold serially diluted in the appropriate solvent. Solvent without compound was used as a no drug reference. Cells were inoculated at a multiplicity of 0.027 with an HIV-1 NL4-3 virus stock engineered to express Renilla luciferase in place of Nef. Diluted virus stock was first added to serially diluted compound. Compound and virus were delivered to cells in an equal volume (100 μl) and treated cultures were returned to the incubator for 96 hours. In parallel, plates for cytotoxicity estimates were prepared in the same way except cells were plated in clear walled 96-well microtiter plates and were mock infected.
At 96 hours post treatment, 20 μl AlamarBlue proliferation reagent was added to 200 μl treated and mock infected cultures and incubated for 3 hours at 37° C. with 5% CO2 then read at 545, 590 nm on fluorescence plate reader (Biotek).
For all assays, data was imported into Accelrys Assay Explorer 3.3. In Assay Explorer, % inhibition (antiviral or cytotoxicity) was calculated using the solvent control as a reference by the following equation: 1−(SignalCompound/SignalReference). The % Inhibition and compound concentration data was fitted using the following 4-parameter logistic model (Assay Explorer model 42):
[formula] where X is compound concentration, Y is % inhibition, D is the maximum % Inhibition (constrained to 100%), C is IC50 value or inflection point, B is the hill slope, and A is the minimum % inhibition (constrained to 0%). The IC50 value is reported as the EC50 or CC50 depending on the assay endpoint. EC50 represents the effective concentration at which virus replication is inhibited by 50 percent. CC50 represents the concentration that results in the death of 50 percent of the host cells. The selectivity or therapeutic index (SI or TI), is the ratio of CC50 over EC50 and represents the relative effectiveness in inhibiting viral replication compared to inducing cell death.

[1] = mock infected MT-2 cells, 96 hours, AlamarBlue, read-out: CC50

Compound | CC50 at 96 h [µM] | CC50 at 96 h [1] [µM]
COc1cc(C)c(/C=C/C2NCCc3cc(OCc4ccccc4)c(OC)cc32)cc1OCc1ccccc1 (centres unmarked) [AF, 6-benzyloxy-1-[(E)-2-(5-benzyloxy-4-methoxy-2-methyl-phenyl)vinyl]-7-methoxy-1,2,3,4-tetrahydroisoquinoline] | 3.87 | –
COc1cc2c(cc1OCc1ccccc1)CCNC2/C=C/c1cc(OC)c(OCc2ccccc2)c(OC)c1 (centres unmarked) [AP, 6-(benzyloxy)-1-[(E)-2-[4-(benzyloxy)-3,5-dimethoxyphenyl]ethenyl]-7-methoxy-1,2,3,4-tetrahydroisoquinoline] | – | 1.64
COc1cc(OC)c(OC)cc1/C=C/C1NCCc2cc(OCc3ccccc3)c(OC)cc21 (centres unmarked) [AQ, 6-(benzyloxy)-7-methoxy-1-[(E)-2-(2,4,5-trimethoxyphenyl)ethenyl]-1,2,3,4-tetrahydroisoquinoline] | – | 1.98
COc1ccc(/C=C/C2NCCc3cc(OCc4ccccc4)c(OC)cc32)cc1Br (centres unmarked) [AR, 6-(benzyloxy)-1-[(E)-2-(3-bromo-4-methoxyphenyl)ethenyl]-7-methoxy-1,2,3,4-tetrahydroisoquinoline] | – | 6.2
COc1cc(/C=C/C2NCCc3cc(OCc4ccccc4)c(OC)cc32)cc(OC)c1 (centres unmarked) [AT, 6-(benzyloxy)-1-[(E)-2-(3,5-dimethoxyphenyl)ethenyl]-7-methoxy-1,2,3,4-tetrahydroisoquinoline] | 4.85 | –
COc1cc(/C=C/C2NCCc3cc(OCc4ccccc4)c(OC)cc32)ccn1 (centres unmarked) [AU, 6-benzyloxy-7-methoxy-1-[(E)-2-(2-methoxy-4-pyridyl)vinyl]-1,2,3,4-tetrahydroisoquinoline] | – | 3.22
COc1ccc(/C=C/C2NCCc3cc(OCc4ccccc4)c(OC)cc32)c(OC)c1 (centres unmarked) [AV, 6-(benzyloxy)-1-[(E)-2-(2,4-dimethoxyphenyl)ethenyl]-7-methoxy-1,2,3,4-tetrahydroisoquinoline] | 5.5 | –
COc1cc2c(cc1OCc1ccccc1)CCNC2/C=C/c1ccncc1 (centres unmarked) [AW, 6-(benzyloxy)-7-methoxy-1-[(E)-2-(pyridin-4-yl)ethenyl]-1,2,3,4-tetrahydroisoquinoline] | – | 11.4
COc1ccc(/C=C/C2NCCc3cc(OCc4ccccc4)c(OC)cc32)cn1 (centres unmarked) [AX, 6-benzyloxy-7-methoxy-1-[(E)-2-(6-methoxy-3-pyridyl)vinyl]-1,2,3,4-tetrahydroisoquinoline] | – | 11.4
COc1cc2c(cc1OCc1ccccc1)CCNC2c1cc(OCc2ccccc2)c(OC)cc1C (centres unmarked) [AY, 6-(benzyloxy)-1-[5-(benzyloxy)-4-methoxy-2-methylphenyl]-7-methoxy-1,2,3,4-tetrahydroisoquinoline] | 5.14 | –
COc1cc2c(cc1OCc1ccccc1)CCNC2c1ccccc1CNC(=O)OC(C)(C)C (centres unmarked) [AZ, tert-butyl N-({2-[6-(benzyloxy)-7-methoxy-1,2,3,4-tetrahydroisoquinolin-1-yl]phenyl}methyl)carbamate] | 9.48 | –
COc1cc(C)c(/C=C/C2NCCc3cc(OCc4ccccc4)c(OC)cc32)c(C)c1 (centres unmarked) [BA, 6-(benzyloxy)-7-methoxy-1-[(E)-2-(4-methoxy-2,6-dimethylphenyl)ethenyl]-1,2,3,4-tetrahydroisoquinoline] | 3.33 | –
COc1cc2c(cc1OCc1ccccc1)CCNC2/C=C/c1cc2c(cc1C)OCO2 (centres unmarked) [BB, 6-(benzyloxy)-7-methoxy-1-[(E)-2-(6-methyl-2H-1,3-benzodioxol-5-yl)ethenyl]-1,2,3,4-tetrahydroisoquinoline] | 2.98 | –
COc1cc2c(cc1OCc1ccccc1)CCNC2/C=C/c1cc2c(cc1C)OCCO2 (centres unmarked) [BC, 6-(benzyloxy)-7-methoxy-1-[(E)-2-(7-methyl-2,3-dihydro-1,4-benzodioxin-6-yl)ethenyl]-1,2,3,4-tetrahydroisoquinoline] | 2.43 | –
CCCCOc1ccc(/C=C/C2NCCc3cc(OCc4ccccc4)c(OC)cc32)cc1OC (centres unmarked) [BD, 6-(benzyloxy)-1-[(E)-2-(4-butoxy-3-methoxyphenyl)ethenyl]-7-methoxy-1,2,3,4-tetrahydroisoquinoline] | 3.62 | –
CCCCOc1cc(/C=C/C2NCCc3cc(OCc4ccccc4)c(OC)cc32)ccc1OC (centres unmarked) [BE, 6-(benzyloxy)-1-[(E)-2-(3-butoxy-4-methoxyphenyl)ethenyl]-7-methoxy-1,2,3,4-tetrahydroisoquinoline] | 3.75 | –

Compound | CC50 at 96 h [µM] | CC50 at 96 h [1] [µM]
COc1ccc(/C=C/C2NCCc3cc(OCc4ccccc4)c(OC)cc32)cc1F (centres unmarked) [BF, 6-(benzyloxy)-1-[(E)-2-(3-fluoro-4-methoxyphenyl)ethenyl]-7-methoxy-1,2,3,4-tetrahydroisoquinoline] | 33.5 | –
COc1cc2c(cc1OCc1ccccc1)CCNC2/C=C/c1ccc(N(C)C)cc1C (centres unmarked) [BG, 4-[(E)-2-[6-(benzyloxy)-7-methoxy-1,2,3,4-tetrahydroisoquinolin-1-yl]ethenyl]-N,N,3-trimethylaniline] | 4.44 | –
COc1cc2c(cc1OCc1ccccc1)CCNC2/C=C/c1cc(OC(F)(F)F)ccc1C (centres unmarked) [BH, 6-(benzyloxy)-7-methoxy-1-[(E)-2-[2-methyl-5-(trifluoromethoxy)phenyl]ethenyl]-1,2,3,4-tetrahydroisoquinoline] | 5.3 | –
COc1cc2c(cc1OCc1ccccc1)CCNC2/C=C/c1ccccc1 (centres unmarked) [BI, 6-(benzyloxy)-7-methoxy-1-[(E)-2-phenylethenyl]-1,2,3,4-tetrahydroisoquinoline] | 10 | –
COc1ccc(/C=C/C2NCCc3cc(OCc4ccccc4)c(OC)cc32)cc1 (centres unmarked) [BJ, 6-(benzyloxy)-7-methoxy-1-[(E)-2-(4-methoxyphenyl)ethenyl]-1,2,3,4-tetrahydroisoquinoline] | 20.9 | –
COc1cc2c(cc1OCc1ccccc1)CCNC2/C=C/c1cccc(OCc2ccccc2)c1 (centres unmarked) [BK, 6-(benzyloxy)-1-[(E)-2-[3-(benzyloxy)phenyl]ethenyl]-7-methoxy-1,2,3,4-tetrahydroisoquinoline] | 4 | –
CCCCOc1cc(/C=C/C2NCCc3cc(OCc4ccccc4)c(OC)cc32)c(C)cc1OC (centres unmarked) [BL, 6-(benzyloxy)-1-[(E)-2-(5-butoxy-4-methoxy-2-methylphenyl)ethenyl]-7-methoxy-1,2,3,4-tetrahydroisoquinoline] | 1.1 | –
COc1cc2c(cc1OCc1ccccc1)CCNC2/C=C/c1ccc2c(c1)CCO2 (centres unmarked) [BM, 6-(benzyloxy)-1-[(E)-2-(2,3-dihydro-1-benzofuran-5-yl)ethenyl]-7-methoxy-1,2,3,4-tetrahydroisoquinoline] | 20.4 | –
COc1cc2c(cc1OCc1ccccc1)CCNC2/C=C/c1ccc2occc2c1 (centres unmarked) [BN, 1-[(E)-2-(1-benzofuran-5-yl)ethenyl]-6-(benzyloxy)-7-methoxy-1,2,3,4-tetrahydroisoquinoline] | 20.7 | –
COc1cc(C)c(/C=C/C2NCCc3cc(OCc4ccccc4)c(OC)cc32)cc1OCCCC(=O)O (centres unmarked) [BO, 4-{5-[(E)-2-[6-(benzyloxy)-7-methoxy-1,2,3,4-tetrahydroisoquinolin-1-yl]ethenyl]-2-methoxy-4-methylphenoxy}butanoic acid] | 8.96 | –
COc1cc(F)c(/C=C/C2NCCc3cc(OCc4ccccc4)c(OC)cc32)cc1OC (centres unmarked) [BP, 6-(benzyloxy)-1-[(E)-2-(2-fluoro-4,5-dimethoxyphenyl)ethenyl]-7-methoxy-1,2,3,4-tetrahydroisoquinoline] | 5.61 | –
COc1ccc(/C=C/C2NCCc3cc(OCc4ccccc4)c(OC)cc32)cc1OC (centres unmarked) [BQ, 6-(benzyloxy)-1-[(E)-2-(3,4-dimethoxyphenyl)ethenyl]-7-methoxy-1,2,3,4-tetrahydroisoquinoline] | 8.7 | –
COc1ccc(/C=C/C2NCCc3cc(OCc4ccccc4)c(OC)cc32)c(F)c1 (centres unmarked) [BR, 6-(benzyloxy)-1-[(E)-2-(2-fluoro-4-methoxyphenyl)ethenyl]-7-methoxy-1,2,3,4-tetrahydroisoquinoline] | 10 | –
COc1cc2c(cc1OCc1ccccc1)CCNC2/C=C/c1sccc1C (centres unmarked) [BS, 6-(benzyloxy)-7-methoxy-1-[(E)-2-(3-methylthiophen-2-yl)ethenyl]-1,2,3,4-tetrahydroisoquinoline] | 11.3 | –
COc1cc(F)c(/C=C/C2NCCc3cc(OCc4ccccc4)c(OC)cc32)c(F)c1 (centres unmarked) [BU, 6-(benzyloxy)-1-[(E)-2-(2,6-difluoro-4-methoxyphenyl)ethenyl]-7-methoxy-1,2,3,4-tetrahydroisoquinoline] | 10.6 | –
COc1cc(C)c(/C=C/C2NCCc3cc(OCc4ccccc4)c(OC)cc32)cc1C (centres unmarked) [BV, 6-(benzyloxy)-7-methoxy-1-[(E)-2-(4-methoxy-2,5-dimethylphenyl)ethenyl]-1,2,3,4-tetrahydroisoquinoline] | 2.63 | –
